Data from publication PMC6450673, “Targeted degradation of aberrant tau in frontotemporal dementia patient-derived neuronal cell models” (eLife, 2019).
Where “and” joins values, the source holds several entries; their conditions need not be identical. Equal values may be shown once.

Legend:
[1] = system: P-tau S396 in P301L neurons; test: Western blot of P-tau S396 in P301L neurons; format: cell-based, human
Excerpt: (§1) Cells from individuals carrying the tau risk variant A152T (c.1407G > A; NCBI RefSeq NM_001123066, rs143624519), the autosomal dominant mutation P301L (c.C1907T; NCBI NM_001123066, rs63751273), or age-matched non-mutant WT tau were employed in this study (Figure 2—source data 1). Dermal fibroblasts from the tau-P301L carrier and the healthy individual were generated from a skin biopsy from subjects within the MGH Frontotemporal Disorders Unit as part of the MGH Neurodegeneration Repository. Approval for human subjects’ work was obtained under a Partners/MGH-approved IRB Protocol (#2010P001611/MGH). Fibroblasts were reprogrammed into iPSCs, which were subsequently converted into cortical-enriched neural progenitor cells (NPCs) and differentiated into neuronal cells as previously described ([Almeida et al., 2012]; [Seo et al., 2017]; [Silva et al., 2016]; [Sheridan et al., 2011]) (Silva MC, Manuscript in preparation, 2019). Briefly, cells were cultured in 6-well (Fisher Scientific Corning, Pittsburgh, PA) or 96-well (Fisher Scientific Corning) plates coated with poly-ornithine (20 μg/mL in water, Sigma, St. Louis, MO) and laminin (5 μg/mL in PBS, Sigma) (POL-coated), in DMEM/F12-B27 media [70% DMEM (Gibco, Carlsbad, CA), 30% Ham’s-F12 (Fisher Scientific Corning), 2% B27 (Gibco), 1% penicillin-streptomycin (Gibco)]. Media was supplemented with EGF (20 ng/mL, Sigma), FGF (20 ng/mL, Stemgent, Cambridge, MA) and heparin (5 μg/mL, Sigma), to promote NPC proliferation and expansion. The growth factors were withdrawn to promote neural differentiation for 6 to 8 weeks, with half media change two times per week. Cell lines’ identity was authenticated by SANGER sequencing, karyotyping and ACGH analysis at different stages of culture maintenance from iPSC to NPC. All working cell lines tested negative for mycoplasma contamination.
(§2) Compound treatment in six-well plates was performed in 2 mL media volume by removing 1 mL of conditioned media from the culture and adding 1 mL of new media pre-mixed with the compound at the appropriate 2X concentration, followed by incubation at 37°C for the designated period of time. Compound treatment in 96-well plates was performed in 100 μL media volume by adding compound directly to each well, followed by incubation at 37°C. When testing the effect of drug pre-treatment, the first compound was added as described above for the period of time needed, and then QC-01–175 was added directly onto the media without media exchange.
Neurons differentiated in six-well plates for 6 weeks were washed and collected in PBS, lysed in RIPA buffer (Boston Bio-Products, Boston, MA) supplemented with 2% SDS (Sigma), protease inhibitors cocktail (Roche Complete Mini tablets, Mannheim, Germany), and phosphatase inhibitors cocktail (Sigma), followed by water sonication (Bransonic Ultrasonic Baths, Thomas Scientific, Danbury, CT) and 20,000 g centrifugation for 20 min. Supernatants were transferred to new tubes and total protein concentration was quantified with the Pierce BCA Protein Assay Kit (ThermoFisher Scientific, Carlsbad, CA). Human recombinant tau protein ladder was purchased from Sigma. Electrophoresis were performed with the Novex NuPAGE SDS-PAGE Gel System (Invitrogen, Carlsbad, CA), by running 10 μg of total protein (pre-boiled in SDS-DTT loading buffer, NEB, Ipswich, MA) on pre-cast SDS-PAGE. Gels were transferred onto PVDF membranes (EMD Millipore) using standard procedures. Membranes were blocked in 5% BSA (Sigma) in Tris-buffered saline with Tween-20 (TBST/Biorad, Hercules, CA) for 2 hr, incubated overnight with primary antibody (see antibody section) at 4°C, followed by corresponding HRP-linked secondary antibody incubation (Cell Signaling Technology, Danvers, MA). […]

[2] = molecular target: T1, total tau (TAU5) in non-mutant control iPSC-derived neurons (Homo sapiens, UniProt P10636); test: Human total tau ELISA in control neurons 1-3; format: cell-based; conditions: for TAU5 (total tau by ELISA, relative to vehicle-treated): replicate values
T1 construct: modeling pathogenic tau species without the need for overexpression of heterologous genes; endogenous in cells; host or cells: 8330-8-RC1, MGH2069-RC1, CTR2-L17-RC2 human iPSC-derived neurons
T1 sequence (P10636 1-441 isoform P10636-8, stated change not applied): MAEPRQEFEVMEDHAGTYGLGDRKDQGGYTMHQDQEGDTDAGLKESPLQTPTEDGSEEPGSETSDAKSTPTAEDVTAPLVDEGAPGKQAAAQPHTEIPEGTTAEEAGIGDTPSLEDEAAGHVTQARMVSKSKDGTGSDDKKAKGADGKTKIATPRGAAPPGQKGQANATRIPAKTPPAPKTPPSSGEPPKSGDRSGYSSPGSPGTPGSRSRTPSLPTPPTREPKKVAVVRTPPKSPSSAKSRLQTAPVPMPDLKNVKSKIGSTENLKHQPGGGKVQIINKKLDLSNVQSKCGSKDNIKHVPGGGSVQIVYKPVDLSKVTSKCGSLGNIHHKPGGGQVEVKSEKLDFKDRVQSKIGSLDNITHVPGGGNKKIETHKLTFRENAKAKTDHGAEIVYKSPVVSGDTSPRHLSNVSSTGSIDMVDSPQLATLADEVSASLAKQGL
Excerpt: as §1, §2
Neuronal cells differentiated in six-well plate format for 6 weeks, were collected as described for western blotting, and lysed in ELISA-compatible buffer (Invitrogen FNN0011), supplemented with 1 mM PMSF, protease (Roche) and phosphatase (Sigma) inhibitors cocktails, for 30 min on ice with quick vortexing. Lysates were clarified by centrifugation at 13,000 rpm at 4°C for 10 min. The clear lysates were then transferred to new microfuge tubes and total protein concentration was quantified with the Pierce BCA Protein Assay Kit (ThermoFisher Scientific). ELISA assays were performed according to manufacturer instructions: Human Total Tau ELISA (Invitrogen Kit KHB0041/KHB0042) and P-Tau[pS396] Human ELISA Kit (Invitrogen Kit KHB7031). Data was plotted using GraphPad Prism version 8.0.

A152T neurons = test: Neuronal stress and viability assay, rescue of Aβ(1-42) toxicity (Alamar Blue); format: cell-based, human

O=C(CCc1ccc2c(c1)[nH]c1ccncc12)NCCOCCOCCNc1cccc2c1C(=O)N(C1CCC(=O)NC1=O)C2=O (stereo not shown) [QC-01–175]
S396 P-Tau (relative to vehicle) ([1]; QC-01-175 0.001 μM, 4 h treatment): 0.59 and 0.49 and 0.60 and 0.58 and 0.57 and 0.52
S396 P-Tau (relative to vehicle) ([1]; QC-01-175 0.001 μM, 8 h treatment): 0.98 and 0.81 and 1.10 and 0.96 and 0.94 and 0.86
S396 P-Tau (relative to vehicle) ([1]; QC-01-175 0.01 μM, 4 h treatment): 0.62 and 0.51 and 0.75 and 0.61 and 0.59 and 0.54
S396 P-Tau (relative to vehicle) ([1]; QC-01-175 0.01 μM, 8 h treatment): 0.69 and 0.97 and 0.99 and 0.98 and 0.66 and 0.61
S396 P-Tau (relative to vehicle) ([1]; QC-01-175 0.05 μM, 8 h treatment): 0.74 and 0.61 and 0.85 and 0.73 and 0.71 and 0.65
S396 P-Tau (relative to vehicle) ([1]; QC-01-175 0.1 μM, 4 h treatment): 0.91 and 0.75 and 0.98 and 0.89 and 0.87 and 0.80
S396 P-Tau (relative to vehicle) ([1]; QC-01-175 0.1 μM, 8 h treatment): 0.62 and 0.51 and 0.70 and 0.61 and 0.59 and 0.54
S396 P-Tau (relative to vehicle) ([1]; QC-01-175 0.5 μM, 4 h treatment): 0.85 and 0.70 and 0.91 and 0.83 and 0.81 and 0.75
S396 P-Tau (relative to vehicle) ([1]; QC-01-175 0.5 μM, 8 h treatment): 0.41 and 0.34 and 0.45 and 0.39 and 0.36
S396 P-Tau (relative to vehicle) ([1]; QC-01-175 1 μM, 4 h treatment): 0.96 and 0.79 and 0.89 and 0.94 and 0.91 and 0.84
S396 P-Tau (relative to vehicle) ([1]; QC-01-175 1 μM, 8 h treatment): 0.47 and 0.55 and 0.51 and 0.46 and 0.54 and 0.59
S396 P-Tau (relative to vehicle) ([1]; QC-01-175 10 μM, 4 h treatment): 0.73 and 0.6 and 0.84 and 0.72 and 0.70 and 0.64
S396 P-Tau (relative to vehicle) ([1]; QC-01-175 10 μM, 8 h treatment): 0.72 and 0.70 and 0.75 and 0.71 and 0.69 and 0.63
reduction of P-tau S396 ([1]; western blot, 1 μM, 24 hr): 80%
TAU5 (total tau by ELISA, relative to vehicle-treated) ([2]; Control 1, 8330-8-RC1, 24h, 0.001 μM): 1.03 and 0.98 and 1.20 and 1.01
TAU5 (total tau by ELISA, relative to vehicle-treated) ([2]; Control 1, 8330-8-RC1, 24h, 0.01 μM): 0.91 and 0.87 and 0.97 and 1.00
TAU5 (total tau by ELISA, relative to vehicle-treated) ([2]; Control 1, 8330-8-RC1, 24h, 0.1 μM): 0.93 and 1.07 and 0.97 and 0.84
TAU5 (total tau by ELISA, relative to vehicle-treated) ([2]; Control 1, 8330-8-RC1, 24h, 1 μM): 0.99 and 0.94 and 0.95 and 0.71
TAU5 (total tau by ELISA, relative to vehicle-treated) ([2]; Control 1, 8330-8-RC1, 24h, 10 μM): 0.74 and 1.00 and 0.91 and 0.86
TAU5 (total tau by ELISA, relative to vehicle-treated) ([2]; Control 2, MGH2069-RC1, 24h, 0.001 μM): 0.91 and 0.93 and 1.00 and 1.15
TAU5 (total tau by ELISA, relative to vehicle-treated) ([2]; Control 2, MGH2069-RC1, 24h, 0.01 μM): 0.82 and 0.85 and 0.89 and 0.99
TAU5 (total tau by ELISA, relative to vehicle-treated) ([2]; Control 2, MGH2069-RC1, 24h, 0.1 μM): 0.76 and 0.78 and 0.92 and 0.71
TAU5 (total tau by ELISA, relative to vehicle-treated) ([2]; Control 2, MGH2069-RC1, 24h, 1 μM): 0.87 and 0.89 and 0.98 and 0.78
TAU5 (total tau by ELISA, relative to vehicle-treated) ([2]; Control 2, MGH2069-RC1, 24h, 10 μM): 0.71 and 0.83 and 0.74 and 0.76
TAU5 (total tau by ELISA, relative to vehicle-treated) ([2]; Control 3, CTR2-L17-RC2, 24h, 0.001 μM): 1.10 and 1.07 and 0.99 and 1.31
TAU5 (total tau by ELISA, relative to vehicle-treated) ([2]; Control 3, CTR2-L17-RC2, 24h, 0.01 μM): 0.96 and 1.12 and 1.00 and 0.90
TAU5 (total tau by ELISA, relative to vehicle-treated) ([2]; Control 3, CTR2-L17-RC2, 24h, 0.1 μM): 1.08 and 0.96 and 0.93 and 1.00
TAU5 (total tau by ELISA, relative to vehicle-treated) ([2]; Control 3, CTR2-L17-RC2, 24h, 1 μM): 0.91 and 0.81 and 0.71 and 0.95
TAU5 (total tau by ELISA, relative to vehicle-treated) ([2]; Control 3, CTR2-L17-RC2, 24h, 10 μM): 0.93 and 0.83 and 1.17 and 0.95
degradation of tau ([2]; all three control neurons, ELISA, 24 hr, concentrations up to 1 μM): No significant degradation
degradation of total tau ([2]; control line 1, 10 μM, 24 hr): ~ 20%
degradation of total tau ([2]; control line 2, 10 μM, 24 hr): ~ 20%
degradation of total tau ([2]; control line 3, 10 μM, 24 hr): no effect
dose dependence of effect on tau, ELISA ([2]; control neurons (8330–8-RC1, MGH2069-RC1, CTR2-L17-RC2), 24 hr): did not show a dose-dependent effect
% Viability (Relative to Vehicle) (A152T neurons; 5μM compound alone, replicates I-VI, 5 µM): 78.5% and 107.2% and 115.8% and 105.0% and 96.7% and 93.6%
neuronal viability, compound alone (A152T neurons; A152T neurons, 24 hr treatment, 5 μM): no change in neuronal viability
viability at 5 µM (A152T neurons; Homo sapiens, Neuron, read-out: viability after Aβ(1-42) stressor, relative to vehicle-alone control, A152T neurons 8 weeks, 5 μM pre-treatment 8 hr, then 10 μM Aβ(1-42) for 16 hr): 90%
